Test results taken from patent publication US20110003767A1, “Inhibitors of Acetyl-CoA Carboxylase for Treatment of Neuronal Hypometabolism” (NEUERA PHARMACEUTICALS, INC., priority 2007, published 2011).
≈ marks a conversion by molar mass, not a printed value. Entries after “also recorded” stand apart in the source; their conditions may differ. Read-outs that look alike come from different tables or passages of the source. One block for each compound: values may come before it.

What was measured:
[1] = tested on: plasma beta-hydroxybutyrate (BHB); assay: Mouse pharmacokinetic (PK) study of AC-0417-9: plasma BHB after oral dosing; type: in vivo; conditions: single po dose of 3 g/kg
Method: Purpose: Determine blood levels of ketone bodies after oral dosing of AC-0417-9 (3,3-Dimethylhexanoate, monoglyceride) at different time points in the mouse. Animals: 12 ICR male mice 6 to 7 weeks old were used. Each mouse weighed between 20-30 grams. General Study Design: Animals (housed 3/cage) were acclimated for at least 3 days prior to dosing. Mice were given a single po dose of 3 g/kg. Animals were anesthetized for blood collection at the times 0.5, 1, 2 and 3 hours. Whole blood (˜0.4 mls) was collected via cardiac puncture and collected into sodium heparin (Na Heparin, 1:9 ratio) anticoagulant. Blood was centrifuged for 8 minutes at 13,000 rpm to isolate plasma. The plasma was transferred into pre-labeled, color-coded eppendorf tubes and frozen at −70° C. […] Plasma levels of beta-hydroxybutyrate (BHB) were determined using a beta-hydroxybutyrate detection kit following manufacturer's directions (StanBio Inc.). Materials: Compound, mouse gavage needles, vehicle, Isoflurane, 1 cc syringes w/26 g needles for blood collection, eppendorf tubes for blood collection, eppendorf tubes for plasma storage, centrifuge, container for sample storage, container for plasma shipment w/dry ice. AC-0417-9 is a clear liquid, 100% active compound by weight. […] Levels of BHB continued to rise during the 3 hour time period with highest levels present at the 3 hour time point.

[2] = tested on: plasma beta-hydroxybutyrate (BHB); assay: Mouse pharmacokinetic (PK) study: plasma BHB after oral (po) and intraperitoneal (ip) dosing of TOFA; type: in vivo; conditions: for Mean BHB levels: mouse plasma
Method: (§1) Purpose: Determine blood levels of ketone bodies after oral (po) and intraperitoneal (ip) dosing of TOFA at different time points in the mouse. Animals: 75 ICR male mice 6 to 7 weeks old were used. Each mouse weighed between 20-30 grams. General Study Design: Animals (housed 3/cage) were acclimated for at least 3 days prior to dosing. Mice were given either a single po dose (ranging from 0.5 mg/kg, to 5 mg/kg) of compound, or a single ip dose (1 mg/kg). Animals were anesthetized for blood collection at the times 0.5, 1, 2 and 3 hours. Whole blood (˜0.4 mls) was collected via cardiac puncture and collected into sodium heparin (Na Heparin, 1:9 ratio) anticoagulant. Blood was centrifuged for 8 minutes at 13,000 rpm to isolate plasma. The plasma was transferred into pre-labeled, color-coded eppendorf tubes and frozen at −70° C. […] Plasma levels of beta-hydroxybutyrate (BHB) were determined using a beta-hydroxybutyrate detection kit following manufacturer's directions (StanBio Inc.). Materials: Compound, mouse gavage needles, vehicle, Isoflurane, 51 1 cc syringes w/26 g needles for blood collection, 63 eppendorf tubes for blood collection, 63 eppendorf tubes for plasma storage, centrifuge, container for sample storage, container for plasma shipment w/dry ice. AC-8632 (5-(tetradecyloxy)-2-furan-carboxylic acid (TOFA)) is a white crystalline solid, 100% active compound by weight. It is insoluble in aqueous solutions. It is soluble in ethanol (1 mg/ml), DMSO (2 mg/ml) and DMF (10 mg/ml). For maximum solubility in aqueous buffers, AC-8632 should first be dissolved in DMF and then diluted with the aqueous buffer of choice. AC-8632 was solubilized at a concentration of 0.5 mg/ml in a 1:1 solution of DMF::PBS (pH 7.2). For ip treatment, AC-8632 was mixed with DMSO at 2 mg/ml. Results: AC-8632 (TOFA) elevated serum BHB levels at each dose from 0.5 mg-kg to 5 mg/kg. Levels of BHB continued to rise during the 3 hour time period with highest levels present at the 3 hour time point. […] Both po and ip dosing led to elevation of plasma BHB at the 3 hour time point.

[3] = Solubility of AC-8632; type: physicochemical; conditions: for solubility: organic solvent or mixture
Method: as §1

[4] = tested on: MPTP lesioned mice; assay: Neuroprotective effects of an ACC inhibitor in MPTP lesioned mice; type: in vivo; conditions: MPTP lesioned C57BL6 mice, oral gavage 0.001-5 mg/kg/day
Method: Neuroprotective effects of an ACC inhibitor in MPTP lesioned mice. 1-methyl-4-phenyl-1,2,3,6-tetrahydropyridine (MPTP), blocks complex I (NADH-ubiquinone oxidoreductase) of the mitochondrial electron transport chain, and causes typical symptoms of Parkinson's disease (PD) and the loss of dopaminergic neurons. C57BL6 mice receive daily orally gavage of CP-610431 at doses ranging from 0.001-5 mg/kg/day for seven days before they are lesioned with MPTP. During the 7 days of MPTP treatment animals will continue treatment with compound 1 or with a placebo. At the end of seven days animals are tested for behavioral effects of MPTP treatment and histopathology is performed.
Three groups of 10 animals are used for this experiment. Group 1 is treated with CP-610431 and lesioned with MPTP, Group 2 is treated with placebo and lesioned with MPTP, and Group 3 is treated with placebo and sham lesioned. After seven days of MPTP treatment behavior and motor skills are tested on all mice. Three tests are used to assess protective behavioral effects: Open Field behavior, Beam Walking test, and Rota Rod test. […]
Dopamine histopathology is immunohistochemically evaluated comparing tyrosine-hydroxylase-positive (TH+) neurons in the substantia nigra density of TH+ nerve terminals in the striatum on the lesioned side of drug treated and control animals. […]

[5] = tested on: Acetyl-CoA carboxylase (ACC), CT (carboxyltranferase) reaction; conditions: cited from earlier work

SMILES: CCCC(C)(C)CC(=O)OCC(O)CO (stereo not shown) [AC-0417-9, 3,3-Dimethylhexanoate, monoglyceride]
serum BHB levels (effect in words) [1]: elevation; also recorded: elevate | time point of highest BHB levels ([1]; 3 hour time period): 3 h

solubility ([3]; DMF, read-out: solubility in DMF): 10000 µg/mL (≈ 30.8 mM) | solubility ([3]; DMSO, read-out: solubility in DMSO): 2000 µg/mL (≈ 6.16 mM) | solubility in aqueous solutions ([3]; aqueous solutions): insoluble | solubility ([3]; ethanol, read-out: solubility in ethanol): 1000 µg/mL (≈ 3.08 mM)
SMILES: CCCCCCCCCCCCCCOc1ccc(C(=O)O)o1 [AC-8632, 5-(tetradecyloxy)-2-furan-carboxylic acid]
Mean BHB levels ([2]; 0.5 mg/kg po, 0 hr): 0.1353 mM | Mean BHB levels ([2]; 0.5 mg/kg po, 0.5 hr): 0.2087 mM | Mean BHB levels ([2]; 0.5 mg/kg po, 1 hr): 0.236 mM | Mean BHB levels ([2]; 0.5 mg/kg po, 2 hr): 0.2427 mM | Mean BHB levels ([2]; 0.5 mg/kg po, 3 hr): 0.3473 mM | Mean BHB levels ([2]; 1 mg/kg ip, 0 hr): 0.1353 mM | Mean BHB levels ([2]; 1 mg/kg ip, 0.5 hr): 0.1723 mM | Mean BHB levels ([2]; 1 mg/kg ip, 1 hr): 0.177 mM | Mean BHB levels ([2]; 1 mg/kg ip, 2 hr): 0.209 mM | Mean BHB levels ([2]; 1 mg/kg ip, 3 hr): 0.2163 mM | Mean BHB levels ([2]; 1 mg/kg po, 0 hr): 0.1353 mM | Mean BHB levels ([2]; 1 mg/kg po, 0.5 hr): 0.2093 mM | Mean BHB levels ([2]; 1 mg/kg po, 1 hr): 0.2187 mM | Mean BHB levels ([2]; 1 mg/kg po, 2 hr): 0.2827 mM | Mean BHB levels ([2]; 1 mg/kg po, 3 hr): 0.2973 mM | Mean BHB levels ([2]; 2 mg/kg po, 0 hr): 0.1353 mM | Mean BHB levels ([2]; 2 mg/kg po, 0.5 hr): 0.2153 mM | Mean BHB levels ([2]; 2 mg/kg po, 1 hr): 0.1497 mM | Mean BHB levels ([2]; 2 mg/kg po, 2 hr): 0.2127 mM | Mean BHB levels ([2]; 2 mg/kg po, 3 hr): 0.339 mM | Mean BHB levels ([2]; 5 mg/kg po, 0 hr): 0.1353 mM | Mean BHB levels ([2]; 5 mg/kg po, 0.5 hr): 0.106 mM | Mean BHB levels ([2]; 5 mg/kg po, 1 hr): 0.111 mM | Mean BHB levels ([2]; 5 mg/kg po, 2 hr): 0.323 mM | Mean BHB levels ([2]; 5 mg/kg po, 3 hr): 0.259 mM | difference of BHB levels by dose or by route of administration ([2]; mouse, 0.5-5 mg/kg po, 1 mg/kg ip): did not differ significantly | time point of highest BHB levels ([2]; mouse, 3 hour time period, po and ip): 3 h | serum BHB levels (effect in words) ([2]; mouse, each dose from 0.5 to 5 mg/kg): elevated

SMILES: CCN(CC)C(=O)[C@@H]1CCCN(C2CCN(C(=O)c3c4ccccc4cc4ccccc34)CC2)C1 [CP-610431, R-1′-(anthracene-9-carbonyl)-N,N-diethyl-1,4′-bipiperidine-3-carboxamide]
behavior and motor skills (Open Field, Beam Walking, Rota Rod) [4]: Improved | number of TH+ neurons ([4]; substantia nigra): Increased

SMILES: O=C(c1c2ccccc2cc2ccccc12)N1CCC(N2CCC[C@@H](C(=O)N3CCOCC3)C2)CC1 [CP-640186, [(3R)-1-[1-(anthracene-9-carbonyl)piperidin-4-yl]piperidin-3-yl]-morpholin-4-ylmethanone]
inhibition of the CT reaction of ACC (in words) [5]: potent, reversible, isozyme-nonselective inhibitors
